Data reported in patent publication US20250296959A1, “B7-H3 TARGETING PEPTIDES AND CONSTRUCTS THEREOF” (Mariana Oncology Inc., priority 2024, published 2025).
Starred links: 1 amine or outer side, 2 acyl side, 3 side chain; linkers in the order of their positions; H or OH if unused. Positions of bridges follow the written chain, without caps; N, C: chain ends. Non-standard residues stand in square brackets, D forms with d. Residues, ends and D or L forms follow the SMILES beside them. Groups on a side chain read outwards from the residue. *: point of attachment. Ala(piperidin-4-yl) = O=C([C@H](CC1CCN([*:3])CC1)N[*:1])[*:2]; DOTA = O=C(O)CN1CCN(CC(=O)O)CCN(CC(=O)*)CCN(CC(=O)O)CC1; Trp(5-F) = N[C@@H](Cc1c[nH]c2ccc(F)cc12)C(=O)O; X1 = C[C@@H](c1ccccc1)[C@H](N[*:1])C(=O)[*:2]; Trp(1-Me) = Cn1cc(C[C@H](N)C(=O)O)c2ccccc21; Ala(4-THP) = N[C@@H](CC1CCOCC1)C(=O)O; Val(3-OH) = CC(C)(O)[C@H](N)C(=O)O; hPhe = N[C@@H](CCc1ccccc1)C(=O)O; PEG4 = NCCOCCOCCOCCOCCC(=O)O; Tle = CC(C)(C)[C@H](N)C(=O)O; hLeu = CC(C)CC[C@H](N)C(=O)O; Pip = O=C(O)[C@@H]1CCCCN1; Nle = CCCC[C@H](N)C(=O)O; CH2 = C([*:1])[*:2]; βAla = NCCC(=O)O

target: T1, human 4lg B7-H3 (Homo sapiens, UniProt Q5ZPR3); experiment: Affinity determination by surface plasmon resonance (SPR) to 4Ig B7-H3; settings: SPR KD—25° C., 4Ig B7-H3; 25° C. flow cell temperature
T1 sequence (Q5ZPR3 29-534): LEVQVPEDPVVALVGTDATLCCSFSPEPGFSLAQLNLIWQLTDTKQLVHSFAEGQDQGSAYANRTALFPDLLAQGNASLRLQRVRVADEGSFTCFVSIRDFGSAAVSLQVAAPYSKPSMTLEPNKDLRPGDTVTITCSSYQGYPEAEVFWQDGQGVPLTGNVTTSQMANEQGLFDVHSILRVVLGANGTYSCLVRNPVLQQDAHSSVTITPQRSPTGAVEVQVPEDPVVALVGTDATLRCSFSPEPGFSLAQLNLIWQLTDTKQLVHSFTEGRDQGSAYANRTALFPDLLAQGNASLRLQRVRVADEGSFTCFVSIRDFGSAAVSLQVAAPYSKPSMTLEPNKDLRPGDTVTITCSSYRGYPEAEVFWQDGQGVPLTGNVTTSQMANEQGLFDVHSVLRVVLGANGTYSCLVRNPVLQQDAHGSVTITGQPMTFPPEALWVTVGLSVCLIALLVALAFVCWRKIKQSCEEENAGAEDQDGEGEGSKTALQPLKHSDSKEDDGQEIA

Row | Kd | SMILES
1 | 1 to 10 nM | CCCC[C@H](NC(C)=O)C(=O)N[C@@H](Cc1ccc(O)cc1)C(=O)N[C@H]1CSSC[C@@H](C(=O)N[C@@H](Cc2cn(C)c3ccccc23)C(=O)N[C@@H](Cc2ccccc2)C(=O)N[C@H](C(=O)N[C@H](CCCCNC(=O)CN2CCN(CC(=O)O)CCN(CC(=O)O)CCN(CC(=O)O)CC2)C(N)=O)[C@@H](C)O)NC(=O)[C@H](Cc2ccc(O)cc2)NC(=O)[C@H](C(C)C)NC(=O)[C@H](CC(=O)O)NC(=O)[C@H](Cc2ccc(O)cc2)NC(=O)[C@H](CCCCN)NC(=O)CNC(=O)[C@H](C(C)C)NC1=O [compound 132, Ac-Nle-Y-C-V-G-K-Y-D-V-Y-C-Trp(Me)-F-Thr-dLys(DOTA)-CONH2] (Ac-[Nle]YCVGKYDVYC[Trp(1-Me)]FT[dK](DOTA)-NH2; disulfide 3-11)
2 | 100 to 300 nM | CC(=O)N[C@@H](CCC(C)C)C(=O)N[C@@H](Cc1ccc(O)cc1)C(=O)N[C@H]1CSSC[C@@H](C(=O)N[C@@H](Cc2c[nH]c3ccc(F)cc23)C(=O)N[C@@H](Cc2ccccc2)C(=O)N2CCC[C@H]2C(=O)O)NC(=O)[C@H](Cc2ccc(O)cc2)NC(=O)[C@H](C(C)C)NC(=O)[C@H](CC(=O)O)NC(=O)[C@H](CC2CCOCC2)NC(=O)[C@H](CCCCNC(=O)CN2CCN(CC(=O)O)CCN(CC(=O)O)CCN(CC(=O)O)CC2)NC(=O)CNC(=O)[C@H](C(C)(C)C)NC1=O [compound 305, Ac-hLeu-Y-C-Tbg-G-Lys(DOTA)-ThpA-D-V-Y-C-5FW-F-Pro-COOH] (Ac-[hLeu]YC[Tle]GK(DOTA)[Ala(4-THP)]DVYC[Trp(5-F)]FP-OH; disulfide 3-11)
3 | 100 to 300 nM | CC(=O)N[C@@H](CCC(C)C)C(=O)N[C@@H](Cc1ccc(O)cc1)C(=O)N[C@H]1CSCSC[C@@H](C(=O)N[C@@H](Cc2c[nH]c3ccc(F)cc23)C(=O)N[C@@H](Cc2ccccc2)C(=O)N[C@H](C(=O)N[C@H](CCCCNC(=O)CN2CCN(CC(=O)O)CCN(CC(=O)O)CCN(CC(=O)O)CC2)C(N)=O)[C@@H](C)O)NC(=O)[C@H](Cc2ccc(O)cc2)NC(=O)[C@H](C(C)C)NC(=O)[C@H](CC(=O)O)NC(=O)[C@H](Cc2ccc(O)cc2)NC(=O)[C@H](CCCCN)NC(=O)CNC(=O)[C@H](C(C)C)NC1=O [compound 189, Ac-hLeu-Y-C(CH2)-V-G-K-Y-D-V-Y-C-5FW-F-Thr-dLys(DOTA)-CONH2] (Ac-[hLeu]YCVGKYDVYC[Trp(5-F)]FT[dK](DOTA)-NH2; linker 3-11 via CH2)
4 | 100 to 300 nM | CC(=O)N[C@@H](CCC(C)C)C(=O)N[C@@H](Cc1ccc(O)cc1)C(=O)N[C@H]1CSSC[C@@H](C(=O)N[C@@H](CCc2ccccc2)C(=O)N[C@@H](Cc2ccccc2)C(=O)N[C@H](C(=O)N[C@H](CCCCNC(=O)CN2CCN(CC(=O)O)CCN(CC(=O)O)CCN(CC(=O)O)CC2)C(=O)O)[C@@H](C)O)NC(=O)[C@H](Cc2ccc(O)cc2)NC(=O)[C@H](C(C)C)NC(=O)[C@H](CC(=O)O)NC(=O)[C@H](CC2CCOCC2)NC(=O)[C@H](CCCCN)NC(=O)CNC(=O)[C@H](C(C)(C)C)NC1=O [compound 359, Ac-hLeu-Y-C-Tbg-G-K-ThpA-D-V-Y-C-hF-F-Thr-dLys(DOTA)-COOH] (Ac-[hLeu]YC[Tle]GK[Ala(4-THP)]DVYC[hPhe]FT[dK](DOTA)-OH; disulfide 3-11)

same assay, conditions: SPR KD—37° C., 4Ig B7-H3; 37° C. flow cell temperature

Row | Kd | SMILES
5 | 1 to 10 nM | CC(=O)N[C@@H](CCC(C)C)C(=O)N[C@@H](Cc1ccc(O)cc1)C(=O)N[C@H]1CSSC[C@@H](C(=O)N[C@@H](Cc2c[nH]c3ccc(F)cc23)C(=O)N[C@@H](Cc2ccccc2)C(=O)N[C@H](C(=O)N[C@H](CO)C(N)=O)C(C)(C)O)NC(=O)[C@H](Cc2ccc(O)cc2)NC(=O)[C@H](C(C)C)NC(=O)[C@H](CC(=O)O)NC(=O)[C@H](CC2CCOCC2)NC(=O)[C@H](CCCCNC(=O)CN2CCN(CC(=O)O)CCN(CC(=O)O)CCN(CC(=O)O)CC2)NC(=O)CNC(=O)[C@H](C(C)(C)C)NC1=O [compound 422, Ac-hLeu-Y-C-Tbg-G-Lys(DOTA)-ThpA-D-V-Y-C-5FW-F-hydroxyVal-dSer-CONH2] (Ac-[hLeu]YC[Tle]GK(DOTA)[Ala(4-THP)]DVYC[Trp(5-F)]F[Val(3-OH)][dS]-NH2; disulfide 3-11)
6 | 10 to 100 nM | CC(=O)N[C@@H](CCC(C)C)C(=O)N[C@@H](Cc1ccc(O)cc1)C(=O)N[C@H]1CSSC[C@@H](C(=O)N[C@@H](Cc2c[nH]c3ccc(F)cc23)C(=O)N[C@@H](Cc2ccccc2)C(=O)N[C@H](C(=O)N[C@H](CCCCNC(=O)CN2CCN(CC(=O)O)CCN(CC(=O)O)CCN(CC(=O)O)CC2)C(=O)O)C(C)(C)O)NC(=O)[C@H](Cc2ccc(O)cc2)NC(=O)[C@H]([C@@H](C)O)NC(=O)[C@H](CC(=O)O)NC(=O)[C@H](CC2CCOCC2)NC(=O)[C@H](CCCCN)NC(=O)CNC(=O)[C@H](C(C)(C)C)NC1=O [compound 377, Ac-hLeu-Y-C-Tbg-G-K-ThpA-D-Thr-Y-C-5FW-F-hydroxyVal-dLys(DOTA)-COOH] (Ac-[hLeu]YC[Tle]GK[Ala(4-THP)]DTYC[Trp(5-F)]F[Val(3-OH)][dK](DOTA)-OH; disulfide 3-11)

The remaining lines, values behind:

Row | SMILES | Kd
7 | CC(=O)N[C@@H](CCC(C)C)C(=O)N[C@@H](Cc1ccc(O)cc1)C(=O)N[C@H]1CSSC[C@@H](C(=O)N[C@@H](Cc2c[nH]c3ccc(F)cc23)C(=O)N[C@H](C(=O)N[C@H](C(=O)NCCC(=O)O)C(C)(C)O)[C@@H](C)c2ccccc2)NC(=O)[C@H](Cc2ccc(O)cc2)NC(=O)[C@H](C(C)C)NC(=O)[C@H](CC(=O)O)NC(=O)[C@H](CC2CCN(C(=O)CCOCCOCCOCCOCCNC(=O)CN3CCN(CC(=O)O)CCN(CC(=O)O)CCN(CC(=O)O)CC3)CC2)NC(=O)[C@H](CC2CCNCC2)NC(=O)CNC(=O)[C@H](C(C)(C)C)NC1=O [compound 511, Ac-hLeu-Y-C-Tbg-G-PipAla-Pip(PEG4-DOTA)Ala-D-V-Y-C-5FW-[(2S, 3S)beta-Me-Phe]-hydroxyVal-betaAla-COOH] (Ac-[hLeu]YC[Tle]G[Ala(piperidin-4-yl)][Ala(piperidin-4-yl)]([PEG4-DOTA])DVYC[Trp(5-F)][X1][Val(3-OH)][βAla]-OH; disulfide 3-11) | < 1 nM
8 | CC(=O)N[C@@H](CCC(C)C)C(=O)N[C@@H](Cc1ccc(O)cc1)C(=O)N[C@H]1CSSC[C@@H](C(=O)N[C@@H](Cc2c[nH]c3ccc(F)cc23)C(=O)N[C@@H](Cc2ccccc2)C(=O)N[C@H](C(=O)N[C@H](CCCCNC(=O)CN2CCN(CC(=O)O)CCN(CC(=O)O)CCN(CC(=O)O)CC2)C(=O)O)C(C)(C)O)NC(=O)[C@H](Cc2ccc(O)cc2)NC(=O)[C@H](CO)NC(=O)[C@H](CC(=O)O)NC(=O)[C@H](CC2CCOCC2)NC(=O)[C@H](CCCCN)NC(=O)CNC(=O)[C@H](C(C)(C)C)NC1=O [compound 378, Ac-hLeu-Y-C-Tbg-G-K-ThpA-D-Ser-Y-C-5FW-F-hydroxyVal-dLys(DOTA)-COOH] (Ac-[hLeu]YC[Tle]GK[Ala(4-THP)]DSYC[Trp(5-F)]F[Val(3-OH)][dK](DOTA)-OH; disulfide 3-11) | 100 to 300 nM
9 | CC(=O)N[C@@H](CCC(C)C)C(=O)N[C@@H](Cc1ccc(O)cc1)C(=O)N[C@H]1CSSC[C@@H](C(=O)N[C@@H](Cc2c[nH]c3ccc(F)cc23)C(=O)N[C@@H](Cc2ccccc2)C(=O)N[C@H](C(=O)N[C@H](CCCCNC(=O)CN2CCN(CC(=O)O)CCN(CC(=O)O)CCN(CC(=O)O)CC2)C(=O)O)C(C)(C)O)NC(=O)[C@H](Cc2ccc(O)cc2)NC(=O)[C@H](C(C)C)NC(=O)[C@H](CC(=O)O)NC(=O)[C@H](CC2CCOCC2)NC(=O)[C@@H]2CCCCN2C(=O)CNC(=O)[C@H](C(C)(C)C)NC1=O [compound 350, Ac-hLeu-Y-C-Tbg-G-Pip-ThpA-D-V-Y-C-5FW-F-hydroxyVal-dLys(DOTA)-COOH] (Ac-[hLeu]YC[Tle]G[Pip][Ala(4-THP)]DVYC[Trp(5-F)]F[Val(3-OH)][dK](DOTA)-OH; disulfide 3-11) | 10 to 100 nM
